This passage reports Ki results from US8435980B2 (AbbVie Inc., priority 2009, dated 2013).

pKi: −log10 of the molar value.

The target in the assay is T1, Cdc7 (BEV coexpressed huCDC7/DBF4) (Homo sapiens, UniProt O00311).
T1 construct: made in house; host or cells: BEV (baculovirus expression vector) co-expression; insect cells are implied but no cell line is named
Nature of the assay: Cdc7 enzyme inhibition assay ([33P]ATP, biotinylated peptide substrate, FlashPlate). It counts as biochemical. As to conditions: Table 3; enzyme inhibition data (Ki). How it is done: Cdc7 (BEV coexpressed huCDC7/DBF4) is prepared internally. Cdc7 assays are conducted as follows with final concentrations as listed. […] Reactions are quenched after 1 hr by the addition of 90 μL stop buffer (50 mM EDTA, 2M NaCl). […] (Ki) for exemplary compounds.

For orientation: pKi means the negative decadic logarithm of the Ki, by convention in mol/L. A high value points to a small Ki.

T1 sequence (O00311 whole entry): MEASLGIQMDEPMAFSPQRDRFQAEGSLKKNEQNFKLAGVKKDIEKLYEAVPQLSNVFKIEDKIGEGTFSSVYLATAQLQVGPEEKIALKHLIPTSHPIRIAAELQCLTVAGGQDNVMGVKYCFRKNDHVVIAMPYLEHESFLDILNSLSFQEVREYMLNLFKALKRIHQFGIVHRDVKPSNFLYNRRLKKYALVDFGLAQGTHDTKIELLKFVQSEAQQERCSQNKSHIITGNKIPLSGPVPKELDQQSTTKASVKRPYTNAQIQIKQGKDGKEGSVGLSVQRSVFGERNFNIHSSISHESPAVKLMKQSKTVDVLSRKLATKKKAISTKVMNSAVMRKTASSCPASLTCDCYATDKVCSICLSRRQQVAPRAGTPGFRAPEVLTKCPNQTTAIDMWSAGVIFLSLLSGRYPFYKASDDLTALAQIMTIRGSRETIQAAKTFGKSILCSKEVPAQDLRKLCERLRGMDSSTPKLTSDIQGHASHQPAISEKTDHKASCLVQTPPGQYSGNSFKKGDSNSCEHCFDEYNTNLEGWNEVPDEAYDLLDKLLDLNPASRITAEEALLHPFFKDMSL
T1 sequence (Q9UBU7 whole entry partner): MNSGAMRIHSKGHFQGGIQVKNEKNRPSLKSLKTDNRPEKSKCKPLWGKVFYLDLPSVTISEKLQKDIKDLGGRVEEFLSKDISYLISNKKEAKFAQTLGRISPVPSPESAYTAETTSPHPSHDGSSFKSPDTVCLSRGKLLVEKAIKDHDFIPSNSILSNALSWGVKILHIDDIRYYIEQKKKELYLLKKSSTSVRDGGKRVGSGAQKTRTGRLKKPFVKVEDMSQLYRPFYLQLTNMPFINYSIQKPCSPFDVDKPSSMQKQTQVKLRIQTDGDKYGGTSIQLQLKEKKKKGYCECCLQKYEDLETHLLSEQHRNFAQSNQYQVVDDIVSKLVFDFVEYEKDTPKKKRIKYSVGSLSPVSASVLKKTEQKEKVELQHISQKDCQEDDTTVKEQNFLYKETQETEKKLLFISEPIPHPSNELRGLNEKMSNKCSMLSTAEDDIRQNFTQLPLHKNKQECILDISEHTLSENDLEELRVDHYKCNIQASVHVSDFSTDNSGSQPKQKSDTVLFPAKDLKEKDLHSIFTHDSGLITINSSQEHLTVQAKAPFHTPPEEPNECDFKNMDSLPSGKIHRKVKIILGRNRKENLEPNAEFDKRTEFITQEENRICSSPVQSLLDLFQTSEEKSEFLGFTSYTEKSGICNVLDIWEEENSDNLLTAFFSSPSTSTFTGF

For the compound `O=C(NC1CCC(N[C@H]2CC[C@H](Nc3cc(-c4c[nH]c5ncccc45)cc(Cl)n3)CC2)CC1)C1CC1` (stereo partly drawn) [Example 162, N-{4-[(trans-4-{[6-chloro-4-(1H-pyrrolo[2,3-b]pyridin-3-yl)pyridin-2-yl]amino}cyclohexyl)amino]cyclohexyl}cyclopropanecarboxamide], the pKi is above 8.00. Turning to `CC(=O)N1CCC(C2CCC(Nc3cc(-c4c[nH]c5ncccc45)cc(Cl)n3)CC2)CC1` (stereo not drawn) [Example 163, 1-[4-(4-{[6-chloro-4-(1H-pyrrolo[2,3-b]pyridin-3-yl)pyridin-2-yl]amino}cyclohexyl)piperidin-1-yl]ethanone], the negative-log Ki (pKi) was above 8.00. With `CC(=O)NCCS(=O)(=O)NC1CCCC(Nc2cc(-c3c[nH]c4ncccc34)cc(Cl)n2)C1` (stereo not drawn) [Example 164, N-{2-[(3-{[6-chloro-4-(1H-pyrrolo[2,3-b]pyridin-3-yl)pyridin-2-yl]amino}cyclohexyl)sulfamoyl]ethyl}acetamide] the figure was above 8.00; with `O=C(NCCS(=O)(=O)NC1CCCC(Nc2cc(-c3c[nH]c4ncccc34)cc(Cl)n2)C1)C1CC1` (stereo not drawn) [Example 165, N-{2-[(3-{[6-chloro-4-(1H-pyrrolo[2,3-b]pyridin-3-yl)pyridin-2-yl]amino}cyclohexyl)sulfamoyl]ethyl}cyclopropanecarboxamide], above 8.00; with `O=C(N[C@H]1CC[C@H](Nc2cc(-c3c[nH]c4ncccc34)cc(Cl)n2)CC1)C1CN(Cc2ccc(F)cc2)C1` [Example 166, N-(trans-4-{[6-chloro-4-(1H-pyrrolo[2,3-b]pyridin-3-yl)pyridin-2-yl]amino}cyclohexyl)-1-(4-fluorobenzyl)azetidine-3-carboxamide], above 8.00. For the compound `CS(=O)(=O)N1CC(C(=O)N[C@H]2CC[C@H](Nc3cc(-c4c[nH]c5ncccc45)cc(Cl)n3)CC2)C1` [Example 167, N-(trans-4-{[6-chloro-4-(1H-pyrrolo[2,3-b]pyridin-3-yl)pyridin-2-yl]amino}cyclohexyl)-1-(methylsulfonyl)azetidine-3-carboxamide], the negative-log Ki (pKi) is above 8.00.

For the compound `Clc1cc(-c2c[nH]c3nccc(Cl)c23)cc(NC2CCCCC2)n1` [Example 168, 6-chloro-4-(4-chloro-1H-pyrrolo[2,3-b]pyridin-3-yl)-N-cyclohexylpyridin-2-amine], the negative logarithm of the Ki (pKi) was above 8.00. The compound `O=S(=O)(CCNC1CCC1)NC1CCCC(Nc2cc(-c3c[nH]c4ncccc34)cc(Cl)n2)C1` (stereo not drawn) [Example 170, N-(3-{[6-chloro-4-(1H-pyrrolo[2,3-b]pyridin-3-yl)pyridin-2-yl]amino}cyclohexyl)-2-(cyclobutylamino)ethanesulfonamide] showed a pKi above 8.00. Consider `Clc1cc(-c2c[nH]c3ncc(-c4cn[nH]c4)cc23)cc(NC2CCCCC2)n1` [Example 171, 6-chloro-N-cyclohexyl-4-[5-(1H-pyrazol-4-yl)-1H-pyrrolo[2,3-b]pyridin-3-yl]pyridin-2-amine], for which the pKi was above 8.00. As for `O=C(NCCS(=O)(=O)NC1CCCC(Nc2cc(-c3c[nH]c4ncccc34)cc(Cl)n2)C1)c1cnccn1` (stereo not drawn) [Example 172, N-{2-[(3-{[6-chloro-4-(1H-pyrrolo[2,3-b]pyridin-3-yl)pyridin-2-yl]amino}cyclohexyl)sulfamoyl]ethyl}pyrazine-2-carboxamide], the figure is above 8.00; as for `Clc1cc(-c2c[nH]c3ncc(Br)cc23)cc(NC2CCCCC2)n1` [Example 173, 4-(5-bromo-1H-pyrrolo[2,3-b]pyridin-3-yl)-6-chloro-N-cyclohexylpyridin-2-amine], above 8.00.

Take `CC(=O)NC1CCC(CC2CCC(Nc3cc(-c4c[nH]c5ncccc45)cc(Cl)n3)CC2)CC1` (stereo not drawn) [Example 174, N-{4-[(4-{[6-chloro-4-(1H-pyrrolo[2,3-b]pyridin-3-yl)pyridin-2-yl]amino}cyclohexyl)methyl]cyclohexyl}acetamide]: the negative-log Ki (pKi) is above 8.00.
